Experimental data from patent publication US12589099B2 (priority 2021, dated 2026).

Assays:
Format in all cases: in vivo, male Wistar rats
[1] = tested on: moderate traumatic brain injury (TBI) induced by controlled cortical impact (CCI); test: Novel object recognition (NOR) test after TBI
Protocol: FIG. 2: The figure illustrates functional tests that are carried out on healthy (sham surgery) no treatment, vehicle treated and ALPHA-1062 treated rats to assess sensorimotor and cognitive function after TBI. Sensimotor function tests. a) The figure depicts tests to assess the modified neurological severity score (mNSS). […] The animal is required to balance over a grid and the frequency of steps missing the grid are counted. This test assesses the functionality of the injured parietal cortex of the rat's brain. c) The adhesive removal test consists of applying adhesive tape on each forepaw of the animal and measuring the time-to-contact and the time-to-remove them. This behavior requires correct paw and mouth sensitivity (time-to-contact) and correct dexterity (time-to-remove). Cognitive function tests: a) This picture illustrates the Morris water maze that comprises that a rat is placed in a large circular pool (picture on the left) and is required to find an invisible platform that allows it to escape the water by using various visuo-spatial cues. This test is used to study spatial learning and memory and assesses hippocampal and select cortical brain region function. Usually, the path of the rat through the pool is tracked (picture on the right) and the time spend in the proximity of the platform as well as the time needed until the platform is found by the rat are measured. b) For the new/novel object recognition (NOR) test, after a habituation time in the test space (picture on far left) rats are given the opportunity to explore two identical objects (A) for a predetermined period of time (picture in the middle). After a delay, the animals are then presented with two objects to explore, one of which is the same as in the first exploration trial (A), the other a new object (B) (picture on the right). […]

[2] = tested on: total Tau; test: Total Tau immunostaining 35 days post-TBI; settings: 4.5 mg/kg IN twice daily, cortex, DG, CA3, CA1 of ipsilateral hemisphere
From the text: (§1) Young adult (2-3 months) male Wistar rats were subjected to a moderate traumatic brain injury (TBI) induced by controlled cortical impact (CCI). Animal models of TBI including the CCI model and functional tests have been described in detail in peer reviewed publications (Xiong et al., 2013, Nat Rev Neurosci.; Zhang et al., 2016, J Neurosurg.; Zhang et al., 2016, Neurochem Int.; Zhang et al., 2021, J Neurotrauma). Injury consisted of a single impact at 4.0 m/sec, 2.5 mm deformation to the left parietal cortex. In addition, a group of animals was left healthy/not injured to serve as a healthy control.
(§2) The substance used in this study was ALPHA-1062 at 4.5 mg/kg. […]
(§3) Histological assessment was performed including quantitative image analysis protocols; followed by statistical analysis of the data. […]
(§4) For cell counting and quantitation NeuN+ cells were examined in the ipsilateral cortex, DG, CA1, and CA3 regions of the ipsilateral hippocampus. […] The number of BrdU+ cells (red-fluorophore) and NeuN (green-fluorophore)/BrdU-colabeled cells (yellow after merge) were counted. […] The immune-positive cells were determined and divided by the measured areas and presented as numbers per square mm. […] Tau or p-Tau immunoreactive areas including cortex, dentate gyrus, CA3 and CA1 regions of the ipsilateral hemisphere were imaged and quantified by Image J software (NIH).

[3] = tested on: pathological p-Tau (AT8); test: p-Tau (AT8) immunostaining 35 days post-TBI; settings: 4.5 mg/kg IN twice daily, cortex, DG, CA3, CA1 of ipsilateral hemisphere
From the text: as §1, §2, §3, §4

In the case of `COc1ccc2c3c1O[C@H]1C[C@@H](OC(=O)c4ccccc4)C=C[C@@]31CCN(C)C2` [ALPHA-1062, (4aS,6R,8aS)-5,6,9,10,11,12-hexahydro-3-methoxy-11-methyl-4aH-[1]benzofuro[3a,3,2-ef][2]benzazepin-6-ol benzoate], the “NOR, percentage of time spent exploring novel object (B) vs familiar object” value ([1]; 4.5 mg/kg IN twice daily, 5 weeks after TBI) is reported as “statistically significant preference for the novel object”, the “Novel Object Recognition, performance over SHAM” value ([1]; rats after TBI, compared to healthy sham animals) is reported as “equivalent to” and the “Novel Object Recognition, performance over VEHICLE” value ([1]; rats after TBI, compared to vehicle treatment) is reported as “superior”. For the same molecule, the “total Tau protein” value [2] was “does not alter total Tau protein” and the “levels of p-Tau compared to vehicle controls” value [3] was “significantly reduced levels of p-Tau”.
